Measurements published in ChEMBL document CHEMBL1201862, “PubChem BioAssay data set” (2004).
The source made the active and inactive calls.

Key:
Beta-galactosidase = Beta-galactosidase (Escherichia coli, UniProt Q8VNN2); assay: PubChem AID 485352; format: functional
[1] = target: Type-1 angiotensin II receptor (Homo sapiens, UniProt P30556); assay: AT1 receptor antagonists, dose response, selectivity assay for APJ receptor antagonist project, cell-based, uHTS hits (AID 463214); format: functional;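 note: antagonist potency against angiotensin II stimulated AT1 response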
Chain of Type-1 angiotensin II receptor (P30556 whole entry): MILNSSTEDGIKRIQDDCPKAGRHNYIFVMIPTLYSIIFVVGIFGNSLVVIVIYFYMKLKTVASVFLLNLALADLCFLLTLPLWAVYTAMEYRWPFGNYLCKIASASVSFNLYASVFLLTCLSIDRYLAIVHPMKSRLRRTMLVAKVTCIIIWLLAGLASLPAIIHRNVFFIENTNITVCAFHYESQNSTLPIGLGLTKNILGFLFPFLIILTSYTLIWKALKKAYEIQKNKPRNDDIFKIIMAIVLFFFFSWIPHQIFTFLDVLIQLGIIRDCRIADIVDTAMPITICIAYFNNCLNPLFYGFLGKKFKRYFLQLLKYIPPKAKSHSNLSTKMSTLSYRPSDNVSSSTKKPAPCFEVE

[2] = target: FAD-linked sulfhydryl oxidase ALR (Homo sapiens, UniProt P55789); assay: inhibitors of human ALR sulfhydryl oxidase, dose response, biochemical, H2O2 detection, luminescence, cherry-pick (AID 493248)
Chain of FAD-linked sulfhydryl oxidase ALR (P55789 whole entry): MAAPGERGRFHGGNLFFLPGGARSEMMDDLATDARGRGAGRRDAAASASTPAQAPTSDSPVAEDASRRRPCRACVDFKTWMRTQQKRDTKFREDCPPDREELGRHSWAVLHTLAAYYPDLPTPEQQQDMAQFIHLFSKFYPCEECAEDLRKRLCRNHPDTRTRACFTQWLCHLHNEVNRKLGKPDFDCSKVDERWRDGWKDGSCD

[3] = target: T1, Microphthalmia-associated transcription factor (Homo sapiens, UniProt O75030); assay: TRPM1 promoter luciferase signal decrease, dose response, MITF inhibitor project, cell-based, SK-MEL-5, cherry-picked, set 3 (AID 493073); format: functional
T1 sequence (O75030 whole entry): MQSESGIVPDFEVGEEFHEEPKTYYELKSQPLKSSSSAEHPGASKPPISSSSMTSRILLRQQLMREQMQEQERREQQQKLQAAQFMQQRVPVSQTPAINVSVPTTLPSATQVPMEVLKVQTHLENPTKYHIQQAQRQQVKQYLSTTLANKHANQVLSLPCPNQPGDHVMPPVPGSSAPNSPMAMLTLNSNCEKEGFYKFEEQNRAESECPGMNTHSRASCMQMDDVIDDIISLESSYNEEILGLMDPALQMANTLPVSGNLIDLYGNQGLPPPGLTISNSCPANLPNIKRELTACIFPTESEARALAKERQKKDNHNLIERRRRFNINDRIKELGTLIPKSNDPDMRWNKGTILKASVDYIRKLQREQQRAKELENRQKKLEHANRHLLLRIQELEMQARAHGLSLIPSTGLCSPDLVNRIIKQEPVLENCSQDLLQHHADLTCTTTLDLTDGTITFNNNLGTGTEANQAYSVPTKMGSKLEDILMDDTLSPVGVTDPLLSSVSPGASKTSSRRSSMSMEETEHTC

A-375 = assay: A375 melanoma cell viability reduction, dose response, counter-screen for MITF modulator project, cherry-pick samples, set 2 (AID 540335); format: functional, cell-based; details: Homo sapiens
[4] = target: T2, Histone-lysine N-methyltransferase NSD2 (Homo sapiens, UniProt O96028); format: biochemical
T2 sequence (O96028 whole entry): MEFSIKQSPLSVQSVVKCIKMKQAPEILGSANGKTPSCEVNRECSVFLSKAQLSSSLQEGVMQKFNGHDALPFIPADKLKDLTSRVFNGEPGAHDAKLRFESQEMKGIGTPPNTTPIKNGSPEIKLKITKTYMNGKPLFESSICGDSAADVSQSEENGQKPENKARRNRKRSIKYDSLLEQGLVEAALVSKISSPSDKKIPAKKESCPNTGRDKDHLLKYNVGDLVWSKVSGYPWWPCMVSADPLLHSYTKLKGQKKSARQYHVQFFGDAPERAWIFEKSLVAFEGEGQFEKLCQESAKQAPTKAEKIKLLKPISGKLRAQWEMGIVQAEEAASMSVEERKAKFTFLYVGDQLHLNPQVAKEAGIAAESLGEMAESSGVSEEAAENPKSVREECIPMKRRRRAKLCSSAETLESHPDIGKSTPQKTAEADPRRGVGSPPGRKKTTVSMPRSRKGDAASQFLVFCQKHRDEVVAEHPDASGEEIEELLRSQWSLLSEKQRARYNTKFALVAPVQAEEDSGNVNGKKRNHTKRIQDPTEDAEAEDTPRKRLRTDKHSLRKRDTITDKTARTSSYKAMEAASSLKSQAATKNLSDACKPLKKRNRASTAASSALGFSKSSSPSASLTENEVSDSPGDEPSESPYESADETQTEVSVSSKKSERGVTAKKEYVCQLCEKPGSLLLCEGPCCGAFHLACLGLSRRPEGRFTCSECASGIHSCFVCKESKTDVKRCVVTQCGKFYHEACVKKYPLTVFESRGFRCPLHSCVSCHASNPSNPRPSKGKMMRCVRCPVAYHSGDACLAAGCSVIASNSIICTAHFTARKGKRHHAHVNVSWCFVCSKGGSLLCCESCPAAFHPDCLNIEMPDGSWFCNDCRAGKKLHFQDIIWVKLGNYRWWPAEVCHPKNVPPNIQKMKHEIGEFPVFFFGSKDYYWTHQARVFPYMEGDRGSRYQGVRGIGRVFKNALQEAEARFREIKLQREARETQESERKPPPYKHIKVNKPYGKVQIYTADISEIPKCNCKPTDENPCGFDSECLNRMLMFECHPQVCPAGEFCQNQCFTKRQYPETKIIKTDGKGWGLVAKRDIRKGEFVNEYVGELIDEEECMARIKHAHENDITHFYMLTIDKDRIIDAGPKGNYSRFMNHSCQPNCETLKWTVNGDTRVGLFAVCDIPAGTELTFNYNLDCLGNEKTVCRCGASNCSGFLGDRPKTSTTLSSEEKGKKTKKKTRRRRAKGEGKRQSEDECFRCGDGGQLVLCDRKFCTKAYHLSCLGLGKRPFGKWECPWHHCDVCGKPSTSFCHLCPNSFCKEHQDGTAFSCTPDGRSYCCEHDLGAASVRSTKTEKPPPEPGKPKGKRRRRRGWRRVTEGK

[5] = target: T3, Heat shock factor protein 1 (Mus musculus, UniProt P38532); assay: inhibition of MG132-induced HSE-luciferase signal, confirmation, cell-based, NIH3T3, luminescence, dose retest (AID 2382); format: functional;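 note: NIH3T3 fibroblasts with HSF1-driven luciferase reporter stressed by proteasome inhibitor MG132; luminescence from HSF1-driven luciferase expression after 8 hours of MG132 stress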
T3 sequence (P38532 whole entry): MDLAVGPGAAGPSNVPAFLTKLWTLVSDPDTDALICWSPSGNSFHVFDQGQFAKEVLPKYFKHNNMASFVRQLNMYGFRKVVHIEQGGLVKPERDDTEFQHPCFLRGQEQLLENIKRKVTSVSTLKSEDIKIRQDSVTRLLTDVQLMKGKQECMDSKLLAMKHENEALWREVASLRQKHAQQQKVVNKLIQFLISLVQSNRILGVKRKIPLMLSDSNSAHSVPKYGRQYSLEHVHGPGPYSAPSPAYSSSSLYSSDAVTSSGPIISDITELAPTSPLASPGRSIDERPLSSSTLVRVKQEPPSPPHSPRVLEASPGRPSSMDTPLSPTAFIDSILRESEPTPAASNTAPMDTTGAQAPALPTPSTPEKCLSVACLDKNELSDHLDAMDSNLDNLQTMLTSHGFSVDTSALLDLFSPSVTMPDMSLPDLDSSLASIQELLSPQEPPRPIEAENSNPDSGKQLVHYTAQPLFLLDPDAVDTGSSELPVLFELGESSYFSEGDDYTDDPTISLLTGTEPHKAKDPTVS

CHO = assay: cytotoxicity in TLR9-MyD88 CHO cells, dose response, cytotoxicity control for TLR9-MyD88 binding inhibitor project, cell-based, luminescence (AID 588339); format: functional, hamster; details: Cricetulus griseus;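 note: CHO cells stably coexpressing TLR9 and MyD88 fusions from primary screen; compound exposure lasted 48 hours before viability readout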
INS1 = assay: protection from cytokine-induced mitochondrial depolarization, dose response, cell-based, INS-1E, JC-1 fluorescence ratio, dry powder (AID 488931); format: functional; details: Rattus norvegicus
Caspase-3 = target: T4, Caspase-3 (Homo sapiens, UniProt P42574); format: functional;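 note: Dose-response selectivity test against caspase-3 for candidate inhibitors of sentrin-specific proteases (SENPs)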
T4 sequence (P42574 whole entry): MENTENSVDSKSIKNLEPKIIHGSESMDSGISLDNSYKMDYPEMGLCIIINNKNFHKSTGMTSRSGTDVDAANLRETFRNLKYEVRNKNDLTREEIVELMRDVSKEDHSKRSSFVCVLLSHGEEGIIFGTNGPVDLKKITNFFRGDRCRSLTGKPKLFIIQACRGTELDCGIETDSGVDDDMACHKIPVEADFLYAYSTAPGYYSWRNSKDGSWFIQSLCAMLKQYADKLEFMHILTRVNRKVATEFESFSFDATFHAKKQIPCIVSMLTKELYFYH

[6] = target: T5, Sentrin-specific protease 7 (Homo sapiens, UniProt Q9BQF6); format: functional;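 note: Luminescence-based dose-response confirmation of ultra-high-throughput screening hits, measuring inhibition of SENP7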
T5 sequence (Q9BQF6 whole entry): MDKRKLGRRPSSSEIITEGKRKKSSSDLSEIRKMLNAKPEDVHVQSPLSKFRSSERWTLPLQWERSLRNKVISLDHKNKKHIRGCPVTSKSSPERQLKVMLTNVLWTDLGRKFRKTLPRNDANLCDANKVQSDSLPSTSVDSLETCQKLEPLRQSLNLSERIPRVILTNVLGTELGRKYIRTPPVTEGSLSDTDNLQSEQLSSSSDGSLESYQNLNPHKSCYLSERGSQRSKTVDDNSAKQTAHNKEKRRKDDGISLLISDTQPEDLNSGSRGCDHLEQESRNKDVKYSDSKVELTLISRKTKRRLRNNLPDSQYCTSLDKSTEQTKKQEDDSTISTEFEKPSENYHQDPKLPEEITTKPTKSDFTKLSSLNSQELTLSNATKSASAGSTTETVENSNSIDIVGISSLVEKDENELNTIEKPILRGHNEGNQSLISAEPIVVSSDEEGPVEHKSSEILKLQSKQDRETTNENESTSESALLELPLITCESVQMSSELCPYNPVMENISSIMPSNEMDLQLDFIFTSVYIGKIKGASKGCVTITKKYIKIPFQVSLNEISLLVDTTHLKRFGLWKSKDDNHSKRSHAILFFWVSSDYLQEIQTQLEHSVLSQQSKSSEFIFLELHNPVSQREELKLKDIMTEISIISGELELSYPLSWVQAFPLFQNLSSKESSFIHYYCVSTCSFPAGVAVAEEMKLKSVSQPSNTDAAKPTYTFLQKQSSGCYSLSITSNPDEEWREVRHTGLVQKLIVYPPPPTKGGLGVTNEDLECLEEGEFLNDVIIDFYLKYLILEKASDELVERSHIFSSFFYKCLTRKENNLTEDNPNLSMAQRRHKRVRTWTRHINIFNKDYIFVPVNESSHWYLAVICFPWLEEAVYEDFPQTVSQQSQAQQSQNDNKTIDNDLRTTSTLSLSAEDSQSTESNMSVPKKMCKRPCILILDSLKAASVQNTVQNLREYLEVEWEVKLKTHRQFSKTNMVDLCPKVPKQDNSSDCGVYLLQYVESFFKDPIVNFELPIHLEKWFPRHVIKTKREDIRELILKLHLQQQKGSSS

[7] = target: T6, Sentrin-specific protease 6 (Homo sapiens, UniProt Q9GZR1); format: functional;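 note: Luminescence-based dose-response confirmatory assay of SENP6 inhibition, following up an ultra-high-throughput screen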
T6 sequence (Q9GZR1 whole entry): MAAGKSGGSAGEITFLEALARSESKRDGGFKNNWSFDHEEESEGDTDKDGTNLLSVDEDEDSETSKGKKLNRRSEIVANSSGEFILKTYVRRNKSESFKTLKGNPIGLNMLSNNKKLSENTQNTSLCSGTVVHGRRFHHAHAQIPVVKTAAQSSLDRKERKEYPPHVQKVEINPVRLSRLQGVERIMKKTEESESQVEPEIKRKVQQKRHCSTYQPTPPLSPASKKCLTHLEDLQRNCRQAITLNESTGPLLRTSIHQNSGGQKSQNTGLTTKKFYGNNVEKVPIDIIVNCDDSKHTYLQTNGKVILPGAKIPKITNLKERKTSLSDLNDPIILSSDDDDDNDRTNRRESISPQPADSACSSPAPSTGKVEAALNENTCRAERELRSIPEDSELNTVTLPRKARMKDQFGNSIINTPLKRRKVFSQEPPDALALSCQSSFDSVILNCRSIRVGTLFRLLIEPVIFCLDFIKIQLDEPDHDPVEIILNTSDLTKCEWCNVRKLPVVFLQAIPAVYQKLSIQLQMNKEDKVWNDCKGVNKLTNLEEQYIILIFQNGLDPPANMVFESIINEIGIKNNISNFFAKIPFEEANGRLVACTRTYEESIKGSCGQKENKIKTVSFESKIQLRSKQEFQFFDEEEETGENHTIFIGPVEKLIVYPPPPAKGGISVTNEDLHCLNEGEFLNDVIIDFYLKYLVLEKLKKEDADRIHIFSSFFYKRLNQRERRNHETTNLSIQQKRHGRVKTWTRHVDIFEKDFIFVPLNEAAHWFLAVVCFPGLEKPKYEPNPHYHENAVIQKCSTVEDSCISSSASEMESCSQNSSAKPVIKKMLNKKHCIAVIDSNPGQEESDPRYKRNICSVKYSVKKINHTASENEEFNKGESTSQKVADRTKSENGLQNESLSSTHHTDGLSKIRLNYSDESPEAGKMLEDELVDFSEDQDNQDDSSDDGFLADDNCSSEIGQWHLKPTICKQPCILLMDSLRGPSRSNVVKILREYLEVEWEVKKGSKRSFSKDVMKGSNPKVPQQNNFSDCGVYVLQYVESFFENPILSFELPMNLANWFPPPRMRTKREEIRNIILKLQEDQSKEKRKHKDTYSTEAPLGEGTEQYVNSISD

[8] = target: T7, Sentrin-specific protease 8 (Homo sapiens, UniProt Q96LD8); format: functional;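 note: luminescence read-out of SENP8 inhibition, dose-response confirmation following an ultra-high-throughput screen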
T7 sequence (Q96LD8 whole entry): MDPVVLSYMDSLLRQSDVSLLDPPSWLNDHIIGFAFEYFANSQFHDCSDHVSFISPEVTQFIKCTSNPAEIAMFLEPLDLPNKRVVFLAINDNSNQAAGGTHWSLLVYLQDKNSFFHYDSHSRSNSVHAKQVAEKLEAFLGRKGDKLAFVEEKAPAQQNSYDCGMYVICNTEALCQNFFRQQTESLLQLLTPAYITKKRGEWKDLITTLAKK

Chain of Beta-galactosidase (Q8VNN2 whole entry): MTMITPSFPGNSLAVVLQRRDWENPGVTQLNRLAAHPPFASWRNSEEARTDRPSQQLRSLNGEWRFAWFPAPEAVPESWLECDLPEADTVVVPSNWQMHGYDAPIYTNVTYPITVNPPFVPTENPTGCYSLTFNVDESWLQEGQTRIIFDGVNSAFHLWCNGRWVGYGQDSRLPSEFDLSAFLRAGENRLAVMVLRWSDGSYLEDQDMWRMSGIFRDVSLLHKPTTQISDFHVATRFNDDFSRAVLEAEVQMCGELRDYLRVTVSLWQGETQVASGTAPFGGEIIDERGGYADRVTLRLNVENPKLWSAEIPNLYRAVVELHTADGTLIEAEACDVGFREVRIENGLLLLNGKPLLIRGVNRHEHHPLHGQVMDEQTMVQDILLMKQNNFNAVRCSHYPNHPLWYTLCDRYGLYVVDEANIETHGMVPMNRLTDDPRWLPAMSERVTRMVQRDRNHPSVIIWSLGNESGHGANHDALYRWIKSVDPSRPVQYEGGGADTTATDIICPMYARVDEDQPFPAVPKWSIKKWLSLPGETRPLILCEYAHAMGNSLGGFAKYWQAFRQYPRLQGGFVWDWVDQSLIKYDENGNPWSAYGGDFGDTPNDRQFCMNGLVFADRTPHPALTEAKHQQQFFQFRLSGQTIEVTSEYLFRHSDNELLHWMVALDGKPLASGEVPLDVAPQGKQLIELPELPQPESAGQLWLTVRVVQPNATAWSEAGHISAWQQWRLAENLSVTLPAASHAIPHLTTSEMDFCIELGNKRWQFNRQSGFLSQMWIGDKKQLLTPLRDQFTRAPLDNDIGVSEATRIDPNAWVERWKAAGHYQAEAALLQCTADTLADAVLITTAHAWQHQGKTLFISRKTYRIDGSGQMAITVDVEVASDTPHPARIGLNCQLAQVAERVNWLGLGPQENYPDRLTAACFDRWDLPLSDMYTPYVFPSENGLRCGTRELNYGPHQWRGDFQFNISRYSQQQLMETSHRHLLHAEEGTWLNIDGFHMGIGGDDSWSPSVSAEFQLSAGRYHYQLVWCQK

Which EC50 (Beta-galactosidase) does the source give for `O=S(=O)(N/N=C\c1ccc(-c2ccccc2Cl)o1)c1ccccc1` here?
The EC50 was > 40 µM (inactive).

What about the IC50 [1] of the same compound?
The IC50 was > 40 µM (not active).

With `Cc1cc(C)cc(N2C(=O)NC(=O)/C(=C\C=C\c3ccco3)C2=O)c1` as the compound, how does the AC50 [2] read?
Its AC50 is 0.501 µM (active).

What about the AC50 [3] of the same compound?
The AC50 was 4.88 µM (active).

And the AC50 (A-375)?
Its AC50 is 26.7 µM (active).

What about the AC50 [4] of the same compound?
The AC50 was 18.1 µM (active).

With `CC(C)OC(=O)c1sc2nc(-c3ccccc3)ccc2c1N` as the compound, how does the EC50 [5] read?
Its EC50 is < 0.16 µM (active).

And the IC50 (CHO)?
Its IC50 is > 49.8 µM (inactive).

`COc1ccc(S(=O)(=O)N(C)C[C@@H]2Oc3c(NC(=O)C4CCCCC4)cccc3C(=O)N([C@@H](C)CO)C[C@H]2C)cc1` was tested. Which AC50 (INS1) did it give?
Its AC50 is 137 µM (active).

Which results are given for `Cc1nnsc1C(=O)NNc1ccc(C(C)(C)C)cc1`?
EC50 (Beta-galactosidase): > 40 µM (inactive); IC50 [1]: 2.56 µM (active)

Which results are given for `Cc1nn2cc(-c3ncc(C(F)(F)F)cc3Cl)cnc2c1Br`?
IC50 (Caspase-3): 21.5 µM (active); IC50 [6]: 19.4 µM (active); IC50 [7]: 44.8 µM (active); IC50 [8]: 36.9 µM (active)
